Source: BigSolDB 2.1

CO/N=C(\C(=O)Sc1nc2ccccc2s1)c1csc(N)n1
Details | solubility (mole fraction)
in ethanol, 277.67 K | 0.000203
in ethanol, 283.11 K | 0.000248
in ethanol, 288.17 K | 0.000325
in ethanol, 293.09 K | 0.000399
in ethanol, 298.17 K | 0.000517
in ethanol, 303.09 K | 0.000688
in isobutanol, 277.67 K | 0.000148
in isobutanol, 283.07 K | 0.000171
in isobutanol, 287.99 K | 0.000206
in isobutanol, 292.79 K | 0.000268
in isobutanol, 297.77 K | 0.000345
in isobutanol, 304.27 K | 0.000531
in isopentanol, 277.65 K | 0.000183
in isopentanol, 283.07 K | 0.000215
in isopentanol, 288.37 K | 0.000286
in isopentanol, 293.03 K | 0.000371
in isopentanol, 298.17 K | 0.000472
in isopentanol, 302.63 K | 0.000622
in isopropanol, 277.91 K | 0.000116
in isopropanol, 283.21 K | 0.000142
in isopropanol, 288.05 K | 0.000168
in isopropanol, 293.19 K | 0.000211
in isopropanol, 298.13 K | 0.000283
in isopropanol, 303.13 K | 0.000365
in n-butanol, 278.11 K | 0.000262
in n-butanol, 283.53 K | 0.00032
in n-butanol, 288.37 K | 0.000424
in n-butanol, 293.03 K | 0.000525
in n-butanol, 297.73 K | 0.000662
in n-butanol, 303.71 K | 0.000962
in n-pentanol, 278.27 K | 0.000283
in n-pentanol, 283.33 K | 0.00034
in n-pentanol, 288.15 K | 0.000433
in n-pentanol, 293.23 K | 0.000564
in n-pentanol, 298.17 K | 0.000744
in n-pentanol, 303.15 K | 0.000992
in n-propanol, 277.85 K | 0.000226
in n-propanol, 283.17 K | 0.000256
in n-propanol, 288.13 K | 0.000332
in n-propanol, 293.17 K | 0.000414
in n-propanol, 297.97 K | 0.000544
in n-propanol, 302.81 K | 0.00079
